{"source": "paper PMC10108347", "about": "“Heterobifunctional Ligase Recruiters Enable pan-Degradation of Inhibitor of Apoptosis Proteins” (Journal of Medicinal Chemistry, 2023)", "key": {"[1]": {"biological_target": "T1, plasma protein (HSA column) (Homo sapiens, UniProt P02768)", "T1 construct": "purchased", "T1 sequence (P02768 25-609)": "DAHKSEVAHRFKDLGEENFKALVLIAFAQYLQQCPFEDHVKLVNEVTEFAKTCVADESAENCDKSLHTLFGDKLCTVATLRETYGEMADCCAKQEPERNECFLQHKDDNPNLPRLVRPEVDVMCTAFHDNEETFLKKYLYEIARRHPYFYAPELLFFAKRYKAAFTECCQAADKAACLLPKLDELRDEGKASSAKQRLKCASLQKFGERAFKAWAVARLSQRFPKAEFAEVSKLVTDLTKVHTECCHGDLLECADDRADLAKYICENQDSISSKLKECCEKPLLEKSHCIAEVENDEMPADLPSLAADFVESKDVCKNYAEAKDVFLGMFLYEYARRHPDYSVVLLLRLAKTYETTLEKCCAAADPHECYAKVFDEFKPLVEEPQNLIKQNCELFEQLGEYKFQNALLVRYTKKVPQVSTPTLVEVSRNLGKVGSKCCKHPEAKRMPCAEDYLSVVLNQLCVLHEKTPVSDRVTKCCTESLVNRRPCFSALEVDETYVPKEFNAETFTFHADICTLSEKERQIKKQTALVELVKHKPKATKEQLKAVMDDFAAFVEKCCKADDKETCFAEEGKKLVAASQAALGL", "assay": "Plasma protein binding estimated by HPLC on a […] HSA column", "format": "in vitro ADME", "conditions": "CHIRALPAK HSA column (50 × 3 mm, 5 μm), estimated by an HPLC-based method, read-out: PPB (plasma protein binding) (converted)", "in_short": "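% PPB was estimated from log retention time on an HSA column (50 × 3 mm, 5 μm, 30 °C), calibrated against log K of literature-PPB reference drugs. Samples were eluted with 50 mM ammonium acetate pH 7.4 and an iPrOH gradient to 30%, with UV detection at 254 nm.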"}, "[2]": {"biological_target": "VHL30 (Homo sapiens, UniProt P40337)", "sequence (P40337 whole entry)": "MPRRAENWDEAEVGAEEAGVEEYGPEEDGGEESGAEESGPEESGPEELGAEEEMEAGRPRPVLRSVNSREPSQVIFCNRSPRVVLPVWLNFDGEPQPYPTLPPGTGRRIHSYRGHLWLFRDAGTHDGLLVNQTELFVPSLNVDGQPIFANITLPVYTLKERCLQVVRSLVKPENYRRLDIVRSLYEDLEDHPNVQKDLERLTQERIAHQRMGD", "assay": "Immunoblotting (western blot) quantification of VHL30 levels in MM.1S cells", "experimental": "(§1) To evaluate the capability of our panel of hetero-PROTACs for E3 ligase degradation, VHL19, VHL30, CRBN, cIAP1, cIAP2, and XIAP levels were quantified by western blot analyses. […] SDS-PAGE was performed, and proteins were then transferred onto PVDF membranes. Blotted membranes were blocked with 5% milk in Tris-buffered saline/Tween20 (TBST). Primary antibodies were diluted in 5% BSA in TBST, and incubations were performed overnight at 4 °C. Secondary HRP-conjugated antibodies diluted in 5% milk were incubated for 1 h at room temperature. Detection of proteins on PVDF was carried out using the WesternBright ECL HRP substrate or the WesternBright Sirius HRP substrate (Advansta, San Jose, USA) and imaged with LAS 4000× (Fujifilm). Membranes were subjected to 10 min incubation with Restore Western Blot Stripping Buffer (Thermo Fisher Scientific, Waltham, USA), followed by TBST washes. After brief re-activation with methanol, the membranes were blocked, and further probing of proteins was carried out.\n(§2) Quantification of blots was performed using ImageJ software (National Institutes of Health)."}, "[3]": {"biological_target": "VHL19 (Homo sapiens, UniProt P40337)", "sequence (P40337 54-213)": "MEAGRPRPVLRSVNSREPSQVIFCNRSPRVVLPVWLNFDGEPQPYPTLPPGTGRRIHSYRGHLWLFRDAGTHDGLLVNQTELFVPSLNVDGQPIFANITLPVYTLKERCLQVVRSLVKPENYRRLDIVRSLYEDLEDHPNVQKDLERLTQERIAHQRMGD", "assay": "Immunoblotting (western blot) quantification of VHL19 levels in MM.1S cells", "conditions": "16 h, 1 μM", "experimental": "as §1, §2"}, "[4]": {"test_system": "IKZF3", "assay": "Immunoblotting (western blot) quantification of IKZF3 levels in MM.1S cells", "conditions": "for %remaining protein IKZF3: 16 h treatment at 0.1 μM, normalized to loading control and DMSO", "experimental": "as §1, §2"}, "[5]": {"biological_target": "CRBN (Homo sapiens, UniProt Q96SW2)", "sequence (Q96SW2 whole entry)": "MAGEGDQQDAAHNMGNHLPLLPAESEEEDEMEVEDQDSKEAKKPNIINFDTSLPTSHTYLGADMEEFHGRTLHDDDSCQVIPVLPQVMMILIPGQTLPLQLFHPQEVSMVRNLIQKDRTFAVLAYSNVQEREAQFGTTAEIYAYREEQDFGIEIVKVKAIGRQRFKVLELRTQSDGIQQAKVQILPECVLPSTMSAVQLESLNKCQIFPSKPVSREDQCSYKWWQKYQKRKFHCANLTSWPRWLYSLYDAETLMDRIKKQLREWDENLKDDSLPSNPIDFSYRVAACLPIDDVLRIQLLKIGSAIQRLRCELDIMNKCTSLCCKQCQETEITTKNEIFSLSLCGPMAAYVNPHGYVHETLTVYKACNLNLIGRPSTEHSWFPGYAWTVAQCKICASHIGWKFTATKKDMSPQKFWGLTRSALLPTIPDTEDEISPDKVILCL", "assay": "Immunoblotting (western blot) quantification of CRBN levels in MM.1S cells", "conditions": "MM1.S, 16 h, read-out: %remaining protein CRBN", "experimental": "as §1, §2"}}, "data": [{"smiles": "CN[C@@H](C)C(=O)N[C@@H](C(=O)N1CCC[C@H]1C(=O)N[C@@H]1c2ccccc2C[C@@H]1OCC#CC#CCO[C@H]1Cc2ccccc2[C@H]1NC(=O)[C@@H]1CCCN1C(=O)[C@H](NC(=O)[C@H](C)NC)C1CCCCC1)C1CCCCC1", "note": "[AZD5582, reference compound]", "values": [{"measurement": "fraction unbound at 0.5 mg/mL", "setting": "[1]", "result": 0.06}]}, {"smiles": "CN[C@@H](C)C(=O)N[C@H](C(=O)N1C[C@@H](Oc2cccc(OCCCCC(=O)N[C@H](C(=O)N3C[C@H](O)C[C@H]3C(=O)N[C@@H](C)c3ccc(-c4scnc4C)cc3)C(C)(C)C)c2)C[C@H]1C(=O)N[C@@H]1CCCc2ccccc21)C1CCCCC1", "note": "[PROTAC 9, (2S,4S)-1-((S)-2-Cyclohexyl-2-((S)-2-(methylamino)propanamido)acetyl)-4-(3-((5-(((S)-1-((2S,4R)-4-hydroxy-2-(((S)-1-(4-(4-methylthiazol-5-yl)phenyl)ethyl)carbamoyl)pyrrolidin-1-yl)-3,3-dimethyl-1-oxobutan-2-yl)amino)-5-oxopentyl)oxy)phenoxy)-N-((R)-1,2,3,4-tetrahydronaphthalen-1-yl)pyrrolidine-2-carboxamide]", "values": [{"measurement": "remaining activity at 0.1 µM", "setting": "[2]; MM1.S, 16 h, read-out: %remaining protein VHL30, MM.1S cells, 16 h treatment at 0.1 μM, normalized to loading control and DMSO", "result": 9, "unit": "%"}, {"measurement": "VHL30 degradation (in words)", "setting": "[2]; MM.1S cells, western blot", "result": "most pronounced after 6 h of treatment"}, {"measurement": "remaining VHL19", "setting": "[3]", "result": 24, "unit": "%"}]}, {"smiles": "CN[C@@H](C)C(=O)N[C@H](C(=O)N1C[C@@H](Oc2cccc(OCCOCCCCCCOCCCCCCNc3cccc4c3C(=O)N(C3CCC(=O)NC3=O)C4=O)c2)C[C@H]1C(=O)N[C@@H]1CCCc2ccccc21)C1CCCCC1", "note": "(stereo partly drawn) [PROTAC 25, (2S,4S)-1-((S)-2-Cyclohexyl-2-((S)-2-(methylamino)propanamido)acetyl)-4-(3-(2-((6-((6-((2-(2,6-dioxopiperidin-3-yl)-1,3-dioxoisoindolin-4-yl)amino)hexyl)oxy)hexyl)oxy)ethoxy)phenoxy)-N-((R)-1,2,3,4-tetrahydronaphthalen-1-yl)pyrrolidine-2-carboxamide]", "values": [{"measurement": "IKZF3 degradation (in words)", "setting": "[4]; 16 h, 1 μM", "result": "substantial IKZF3 degradation at 1 μM"}, {"measurement": "%remaining protein IKZF3", "setting": "[4]", "result": 95, "unit": "%"}, {"measurement": "remaining activity at 0.1 µM", "setting": "[5]", "result": 91, "unit": "%"}]}, {"smiles": "CN[C@@H](C)C(=O)N[C@H](C(=O)N1C[C@@H](Oc2cccc(OCCCCCCOCCCCCCOCCCCCCNc3cccc4c3C(=O)N(C3CCC(=O)NC3=O)C4=O)c2)C[C@H]1C(=O)N[C@@H]1CCCc2ccccc21)C1CCCCC1", "note": "(stereo partly drawn) [PROTAC 27, (2S,4S)-1-((S)-2-Cyclohexyl-2-((S)-2-(methylamino)propanamido)acetyl)-4-(3-((6-((6-((6-((2-(2,6-dioxopiperidin-3-yl)-1,3-dioxoisoindolin-4-yl)amino)hexyl)oxy)hexyl)oxy)hexyl)oxy)phenoxy)-N-((R)-1,2,3,4-tetrahydronaphthalen-1-yl)pyrrolidine-2-carboxamide]", "values": [{"measurement": "%remaining protein IKZF3", "setting": "[4]", "result": 95, "unit": "%"}, {"measurement": "remaining activity at 0.1 µM", "setting": "[5]", "result": 95, "unit": "%"}]}]}
